Data on 13 molecules can be found in patent publication US9073855B2, “BCL-2 selective apoptosis-inducing agents for the treatment of cancer and immune diseases” (AbbVie Inc., priority 2008, dated 2015).

In one assay the target is GST-Bcl-2 (Homo sapiens, UniProt P10415). Kind of assay: TR-FRET binding assay, GST-Bcl-2 with F-Bak peptide probe. The note with it: TR-FRET Binding Affinity, GST-Bcl-2, F-Bak peptide probe. As for the experimental part: (§1) Tb-anti-GST antibody was purchased from Invitrogen (Catalog No. PV4216).
(§2) Representative compounds were serially diluted in dimethyl sulfoxide (DMSO) starting at 50 μM (2× starting concentration; 10% DMSO) and 10 μL were transferred into a 384-well plate.
(§3) The samples were then mixed on a shaker for 1 minute and incubated for an additional 3 hours at room temperature. For each assay, the probe/antibody and protein/probe/antibody were included on each assay plate as negative and positive controls, respectively. Fluorescence was measured on the ENVISION plate reader (Perkin Elmer) using a 340/35 nm excitation filter and 520/525 (F-Bak peptide) and 495/510 nm (Tb-labeled […] antibody) emission filters.
(§4) The inhibition constant (Ki) is the dissociation constant of an enzyme-inhibitor complex or a protein/small molecule complex, wherein the small molecule is inhibiting binding of one protein to another protein or peptide. […] Inhibition constants were determined using Wang's equation (Wang Z-X., An Exact Mathematical Expression For Describing Competitive Binding Of Two Different Ligands To A Protein Molecule. FEBS Lett. 1995, 360:111-4).
On the technique in general: TR-FRET usually uses a lanthanide donor and a delayed reading to cut background.

The target in the next assay is GST-Bcl-XL (Homo sapiens, UniProt Q07817). Nature of the assay: TR-FRET binding assay, GST-Bcl-XL with F-Bak peptide probe. The note with it: TR-FRET Binding Affinity, GST-Bcl-XL, F-Bak peptide probe. Here is the method: as §1, §2, §3, §4
Chain of GST-Bcl-XL (Q07817 whole entry): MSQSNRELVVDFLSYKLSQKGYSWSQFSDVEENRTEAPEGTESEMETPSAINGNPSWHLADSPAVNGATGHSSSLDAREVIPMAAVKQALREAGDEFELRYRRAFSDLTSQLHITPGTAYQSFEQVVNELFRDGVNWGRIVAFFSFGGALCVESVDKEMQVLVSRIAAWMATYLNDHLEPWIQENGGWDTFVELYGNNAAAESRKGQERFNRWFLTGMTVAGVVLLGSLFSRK

Chain of GST-Bcl-2 (P10415 whole entry): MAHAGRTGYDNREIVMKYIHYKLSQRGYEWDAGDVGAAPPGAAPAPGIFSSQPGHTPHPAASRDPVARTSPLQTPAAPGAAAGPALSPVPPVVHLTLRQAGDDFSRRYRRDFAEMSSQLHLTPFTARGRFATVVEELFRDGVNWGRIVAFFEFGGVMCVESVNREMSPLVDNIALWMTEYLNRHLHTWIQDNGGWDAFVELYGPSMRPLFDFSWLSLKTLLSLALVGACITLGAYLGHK

Usually Ki stands for the dissociation constant of the complex between target and ligand, obtained from inhibition or displacement. On to `O=C(NS(=O)(=O)c1ccc(NCCCN2CCCC2)c([N+](=O)[O-])c1)c1ccc(N2CCN(Cc3ccccc3-c3ccc(Cl)cc3)CC2)cc1Oc1ccccc1` [Example 91, 4-{4-[(4′-chloro-1,1′-biphenyl-2-yl)methyl]piperazin-1-yl}-N-({3-nitro-4-[(3-pyrrolidin-1-ylpropyl)amino]phenyl}sulfonyl)-2-phenoxybenzamide], for which the inhibitory constant (Ki) worked out at 0.193 nM at GST-Bcl-2 and 10.2 nM on GST-Bcl-XL.

Take `CN(C)CCCNc1ccc(S(=O)(=O)NC(=O)c2ccc(N3CCN(Cc4ccccc4-c4ccc(Cl)cc4)CC3)cc2Oc2ccccc2)cc1C(F)(F)F` [Example 92, 4-{4-[(4′-chloro-1,1′-biphenyl-2-yl)methyl]piperazin-1-yl}-N-{[4-{[3-(dimethylamino)propyl]amino}-3-(trifluoromethyl)phenyl]sulfonyl}-2-phenoxybenzamide]: the values for the Ki on GST-Bcl-2 and on GST-Bcl-XL were 4.38 nM and 349 nM, respectively.

For the molecule `CC(C)N(C)CCCNc1ccc(S(=O)(=O)NC(=O)c2ccc(N3CCN(Cc4ccccc4-c4ccc(Cl)cc4)CC3)cc2Oc2ccccc2)cc1[N+](=O)[O-]` [Example 93, 4-{4-[(4′-chloro-1,1′-biphenyl-2-yl)methyl]piperazin-1-yl}-N-{[4-({3-[isopropyl(methyl)amino]propyl}amino)-3-nitrophenyl]sulfonyl}-2-phenoxybenzamide], the figures for the Ki at GST-Bcl-2 and at GST-Bcl-XL were 0.231 nM and 13.9 nM, respectively.

In the case of `CN1CCN(CCNc2ccc(S(=O)(=O)NC(=O)c3ccc(N4CCN(CC5=C(c6ccc(Cl)cc6)CC(C)(C)CC5)CC4)cc3Oc3ccc4[nH]ccc4c3)cc2[N+](=O)[O-])CC1` [Example 95, 4-(4-{[2-(4-chlorophenyl)-4,4-dimethylcyclohex-1-en-1-yl]methyl}piperazin-1-yl)-2-(1H-indol-5-yloxy)-N-[(4-{[2-(4-methylpiperazin-1-yl)ethyl]amino}-3-nitrophenyl)sulfonyl]benzamide], the figures for the Ki on GST-Bcl-2 and on GST-Bcl-XL were 0.06 nM and 15.7 nM, respectively.

With `CN1CCN(CCNc2ccc(S(=O)(=O)NC(=O)c3ccc(N4CCN(CC5=C(c6ccc(Cl)cc6)CC(C)(C)CC5)CC4)cc3Oc3cccc4[nH]ccc34)cc2[N+](=O)[O-])CC1` [Example 101, 4-(4-{[2-(4-chlorophenyl)-4,4-dimethylcyclohex-1-en-1-yl]methyl}piperazin-1-yl)-2-(1H-indol-4-yloxy)-N-[(4-{[2-(4-methylpiperazin-1-yl)ethyl]amino}-3-nitrophenyl)sulfonyl]benzamide], the Ki on GST-Bcl-2 was 0.092 nM; on GST-Bcl-XL, 11.2 nM.

Consider `CN1CCN(c2ccc(S(=O)(=O)NC(=O)c3ccc(N4CCN(CC5=C(c6ccc(Cl)cc6)CC(C)(C)CC5)CC4)cc3Oc3ccc4[nH]ccc4c3)cc2[N+](=O)[O-])CC1` [Example 107, 4-(4-{[2-(4-chlorophenyl)-4,4-dimethylcyclohex-1-en-1-yl]methyl}piperazin-1-yl)-2-(1H-indol-5-yloxy)-N-{[4-(4-methylpiperazin-1-yl)-3-nitrophenyl]sulfonyl}benzamide], for which the Ki on GST-Bcl-2 is 2.09 nM; on GST-Bcl-XL it was 130 nM.

Consider `CC1(C)CCC(CN2CCN(c3ccc(C(=O)NS(=O)(=O)c4ccc(NC5CCN(CC(F)(F)F)CC5)c([N+](=O)[O-])c4)c(Oc4cccc5[nH]ccc45)c3)CC2)=C(c2ccc(Cl)cc2)C1` [Example 108, 4-(4-{[2-(4-chlorophenyl)-4,4-dimethylcyclohex-1-en-1-yl]methyl}piperazin-1-yl)-2-(1H-indol-4-yloxy)-N-[(3-nitro-4-{[1-(2,2,2-trifluoroethyl)piperidin-4-yl]amino}phenyl)sulfonyl]benzamide], for which the Ki on GST-Bcl-2 is 2.34 nM; on GST-Bcl-XL, 59.6 nM.

For `O=C(NS(=O)(=O)c1ccc(NCC2CCOCC2)c([N+](=O)[O-])c1)c1ccc(N2CCN(Cc3cc(OCCCN4CCCCC4)ccc3-c3ccc(Cl)cc3)CC2)cc1Oc1ccccc1` [Example 114, 4-(4-{[4′-chloro-4-(3-piperidin-1-ylpropoxy)-1,1′-biphenyl-2-yl]methyl}piperazin-1-yl)-N-({3-nitro-4-[(tetrahydro-2H-pyran-4-ylmethyl)amino]phenyl}sulfonyl)-2-phenoxybenzamide], the Ki on GST-Bcl-2 was found to be 0.096 nM; on GST-Bcl-XL, 14.3 nM.

On to `O=C(NS(=O)(=O)c1ccc(NCC2CCOCC2)c([N+](=O)[O-])c1)c1ccc(N2CCN(Cc3cc(OCCN4CCOCC4)ccc3-c3ccc(Cl)cc3)CC2)cc1Oc1ccccc1` [Example 115, 4-(4-{[4′-chloro-4-(2-morpholin-4-ylethoxy)-1,1′-biphenyl-2-yl]methyl}piperazin-1-yl)-N-({3-nitro-4-[(tetrahydro-2H-pyran-4-ylmethyl)amino]phenyl}sulfonyl)-2-phenoxybenzamide], for which the Ki amounted to 0.176 nM at GST-Bcl-2 and 27.5 nM on GST-Bcl-XL.

Regarding `CN(C)CCCOc1ccc(-c2ccc(Cl)cc2)c(CN2CCN(c3ccc(C(=O)NS(=O)(=O)c4ccc(NCC5CCOCC5)c([N+](=O)[O-])c4)c(Oc4ccccc4)c3)CC2)c1` [Example 116, 4-[4-({4′-chloro-4-[3-(dimethylamino)propoxy]-1,1′-biphenyl-2-yl}methyl)piperazin-1-yl]-N-({3-nitro-4-[(tetrahydro-2H-pyran-4-ylmethyl)amino]phenyl}sulfonyl)-2-phenoxybenzamide], the figures for the Ki at GST-Bcl-2 and on GST-Bcl-XL were 0.036 nM and 8.3 nM, respectively.

With `O=C(NS(=O)(=O)c1ccc(NCC2CCOCC2)c(S(=O)(=O)C(F)(F)F)c1)c1ccc(N2CCN(Cc3cc(OCCN4CCOCC4)ccc3-c3ccc(Cl)cc3)CC2)cc1Oc1ccccc1` [Example 117, 4-(4-{[4′-chloro-4-(2-morpholin-4-ylethoxy)-1,1′-biphenyl-2-yl]methyl}piperazin-1-yl)-2-phenoxy-N-({4-[(tetrahydro-2H-pyran-4-ylmethyl)amino]-3-[(trifluoromethyl)sulfonyl]phenyl}sulfonyl)benzamide], the inhibition constant (Ki) on GST-Bcl-2 was 2.3 nM; at GST-Bcl-XL, more than 660 nM.

As to `O=C(NS(=O)(=O)c1ccc(NCC2CCOCC2)c(S(=O)(=O)C(F)(F)F)c1)c1ccc(N2CCN(Cc3cc(OCCCN4CCCCC4)ccc3-c3ccc(Cl)cc3)CC2)cc1Oc1ccccc1` [Example 118, 4-(4-{[4′-chloro-4-(3-piperidin-1-ylpropoxy)-1,1′-biphenyl-2-yl]methyl}piperazin-1-yl)-2-phenoxy-N-({4-[(tetrahydro-2H-pyran-4-ylmethyl)amino]-3-[(trifluoromethyl)sulfonyl]phenyl}sulfonyl)benzamide], the Ki at GST-Bcl-2 is 0.769 nM; at GST-Bcl-XL it was more than 660 nM.

For `CN(C)CCCOc1ccc(-c2ccc(Cl)cc2)c(CN2CCN(c3ccc(C(=O)NS(=O)(=O)c4ccc(NCC5CCOCC5)c(S(=O)(=O)C(F)(F)F)c4)c(Oc4ccccc4)c3)CC2)c1` [Example 119, 4-[4-({4′-chloro-4-[3-(dimethylamino)propoxy]-1,1′-biphenyl-2-yl}methyl)piperazin-1-yl]-2-phenoxy-N-({4-[(tetrahydro-2H-pyran-4-ylmethyl)amino]-3-[(trifluoromethyl)sulfonyl]phenyl}sulfonyl)benzamide], the Ki worked out at 0.622 nM on GST-Bcl-2 and 230 nM at GST-Bcl-XL.
